We go through 7 compounds from PMC2918917 (New journal of chemistry = Nouveau journal de chimie, 2010).

Where two headings read alike, the source gives them in different places.

Data set [1] has as its system cultured mouse mammary cells. The conditions noted are these: cited from earlier work.
In data set [2] the test system is microRNA-mediated translational repression. The conditions noted are these: cited from earlier work; for enhancement of microRNA-mediated translational repression: Drosophila melanogaster embryos extract.
For data set [3], the system named is cultured cells. The conditions noted are these: cited from earlier work.
For data set [4], the target named is hDcp2 (Homo sapiens, UniProt Q8IU60). As to the kind of experiment: In vitro decapping of capped mRNA by hDcp2. The data set is classed as biochemical. To be noted: mRNA capped with D1 plus D2 mixture; preliminary results, unpublished work [21].
The subject of data set [5] is rabbit reticulocyte lysate (RRL) system. To be noted: cited from earlier work.
The target in data set [6] is T1, human DcpS (Homo sapiens, UniProt Q96C86).
T1 sequence (Q96C86 1-337): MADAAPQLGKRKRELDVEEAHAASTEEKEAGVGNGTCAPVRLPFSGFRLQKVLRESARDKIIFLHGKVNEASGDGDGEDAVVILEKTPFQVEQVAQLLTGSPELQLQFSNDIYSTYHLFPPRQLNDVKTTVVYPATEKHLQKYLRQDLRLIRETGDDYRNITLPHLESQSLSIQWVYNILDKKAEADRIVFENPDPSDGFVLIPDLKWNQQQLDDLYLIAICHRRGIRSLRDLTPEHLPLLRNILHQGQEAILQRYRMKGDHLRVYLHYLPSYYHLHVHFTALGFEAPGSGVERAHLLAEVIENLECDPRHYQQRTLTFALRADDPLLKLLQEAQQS
The experiment in a line: hDcpS assay: enzymatic hydrolysis of cap analogs monitored by RP HPLC. To be noted: positive control; cleavage to m^7GMP and GDP; amount of DcpS adjusted.

`CO[C@@H]1[C@H](O)[C@@H](COP(=O)(O)OP(O)(=S)OP(=O)(O)OC[C@H]2O[C@@H](n3cnc4c(=O)[nH]c(N)nc43)[C@H](O)[C@@H]2O)O[C@H]1n1c[n+](C)c2c(=O)[nH]c(N)nc21` (stereo partly drawn) [m2^7,2’-OGppSpG (D2)]: the “translation efficiency relative to m2^7,2’-OGpppG-capped mRNA” value in data set [1] is on record as 2.4.
As to `C[n+]1cn(C2OC(COP(=O)([O-])OP(=O)(O)OP(=O)(O)OP(=O)(O)OP(=O)(O)OP(=O)(O)OCC3OC(n4cnc5c(=O)[nH]c(N)nc54)C(O)C3O)C(O)C2O)c2nc(N)[nH]c(=O)c21` (stereo not drawn) [m^7Gp6G], in data set [2], the “enhancement of microRNA-mediated translational repression” value (“enhancement” for short) is ~ 2 fold and the “effect on general cap-dependent translation” value (“effect” below) is “neutral”.
As to m2^7,3'-OGppCH2pG, in data set [3], the “half-life of capped mRNA transfected into cultured cells” value is “prolonged half-life” and the “translation of capped mRNA versus regular ARCA” value is listed as “translated even less efficiently”.
In the case of `COC1C(O)C(COP(=O)(O)OP(=O)(O)OP(O)(=S)OCC2OC(n3cnc4c(=O)[nH]c(N)nc43)C(O)C2O)OC1n1c[n+](C)c2c(=O)[nH]c(N)nc21` (stereo not drawn) [m2^7,2’-OGpppSG (D2)], in data set [2], the “enhancement” value is given as 2 fold and the “effect” value is “no change”. For the same compound, in data set [2] (listed as m2^7,2'-OGpppSG (D2)), the “enhancement” value is ~ 2 fold and the “effect” value is reported as “neutral”.
For the compound “P1-(7,2'-O-dimethylguanosin-5'-y l ) P4-guanosin-5'-yl (3-thiotetraphosphate) [compound 2]”, in data set [4], the “susceptibility of capped mRNA to in vitro decapping by hDcp2” value is “resistant”.
As to `COC1C(COP(=O)([O-])OP(=O)(O)OP(=O)(O)OP(=O)(O)OP(=O)(O)OCC2OC(n3cnc4c(=O)[nH]c(N)nc43)C(O)C2O)OC(n2c[n+](C)c3c(=O)[nH]c(N)nc32)C1O` (stereo not drawn) [m2^7,3'-OGp5G], the “translation efficiency of mRNA capped with pentaphosphate analog” value in data set [5] is “not effective in promoting translation”.
For the compound `Cn1c[n+]([C@@H]2O[C@H](COP(=O)(O)OP(=O)([O-])OP(=O)(O)OC[C@H]3O[C@@H](n4cnc5c(=O)[nH]c(N)nc54)[C@H](O)[C@@H]3O)[C@@H](O)[C@H]2O)c2nc(N)[nH]c(=O)c21` [m^7GpppG], the “time to complete cleavage by DcpS” value in data set [6] is listed as “less than 15 min”.
